Source: publication PMC7929976, “Eriodictyol as a Potential Candidate Inhibitor of Sortase A Protects Mice From Methicillin-Resistant Staphylococcus aureus-Induced Pneumonia” (Frontiers in Microbiology, 2021)

Target: T1, Sortase A (SrtA) (Staphylococcus aureus, UniProt Q2FV99)
T1 construct: pET28a-SrtA, recombinant, nickel-purified
Experiment: FRET cleavage assay with purified recombinant SrtA; reversible by dilution; binding supported by fluorescence quenching (KA […] L/mol)
Type: biochemical

T1 sequence (Q2FV99 whole entry): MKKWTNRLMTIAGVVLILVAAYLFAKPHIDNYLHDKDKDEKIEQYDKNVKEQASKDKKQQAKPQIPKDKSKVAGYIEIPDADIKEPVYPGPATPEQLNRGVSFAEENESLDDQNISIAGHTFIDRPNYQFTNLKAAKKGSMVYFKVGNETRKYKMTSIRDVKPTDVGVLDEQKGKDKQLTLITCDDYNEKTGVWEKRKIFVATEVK

## O=C1C[C@@H](c2ccc(O)c(O)c2)Oc2cc(O)cc(O)c21 [eriodictyol]
  IC50: 7.73 µM
